US20210038563A1, “NEW SPIRONOLACTONE FORMULATIONS AND THEIR USE” (Apidel SA, priority 2018, published 2021)

How the values were obtained:
[1] = system: dexamethasone-induced delayed corneal wound healing; assay: Corneal re-epithelialization evaluation (fluorescein test) after corneal de-epithelialization; assay type: in vivo, New Zealand white rabbit; conditions: Day 4; mean ± SD
Method: Fifty male albino New Zealand rabbits weighing approximately 2.3-3.0 kg were included for this study (Iris Pharma, France). Animals were housed individually in standard cages, under identical environmental conditions. The temperature was kept at 15-21° C. and the relative humidity was >45%. Rooms were continuously ventilated (>15 air volumes per hour). Temperature and relative humidity were continuously controlled and recorded. Animals were routinely exposed (in-cage) to a 10-200 1× light in a 12-hour light/dark cycle (from 7:00 a.m. to 7:00 p.m.). Animals had enrichment and free access to food (150 g/day) and were allowed water ad libitum. All animals were healthy and free of clinically observable ocular abnormalities throughout the study. […]
The animals were anesthetized by an intramuscular injection of a ketamine-xylazine mixture. […] De-epithelialization was monitored by fluorescein staining. […]
The size of the corneal wound was evaluated using the fluorescein test immediately after ocular debridement and once a day before the first instillation of the day. A baseline was recorded before the de-epithelialization. […] Images of the corneal lesion (area stained by fluorescein) were taken using a CCD camera and analyzed using image J software. […]

[2] = system: MR; conditions: Corvol et al. [19]; cited from earlier work
[3] = target: mineralocorticoid receptor; conditions: Sutanto et al. [20]; read-out: half maximal inhibitory concentrations (IC50); cited from earlier work
[4] = [26, 27]; cited from earlier work

For `C[C@@H]1C[C@H]2[C@@H]3CCC4=CC(=O)C=C[C@]4(C)[C@@]3(F)[C@@H](O)C[C@]2(C)[C@@]1(O)C(=O)CO` [DXM, Dexamethasone], the “Mean percentage of re-epithelialization” value [1] was 84.6±13.9%.
For `C[C@]12CCC(=O)C=C1C=C[C@@H]1[C@@H]2CC[C@@]2(C)[C@H]1CC[C@@]21CCC(=O)O1` [CAN, Canrenone], the “Affinity for the MR, fold lower as compared to SPL” value [2] is listed as 10 fold.
In the case of `C[C@]12CCC(=O)C=C1C=C[C@@H]1[C@@H]2CC[C@@]2(C)[C@H]1CC[C@@]2(O)CCC(=O)O` [CANK, potassium canrenoate], the IC50 [3] is given as greater than 1000 nM and the “Affinity for the MR” value [2] is given as “very low affinity”.
For `CS[C@@H]1CC2=CC(=O)CC[C@]2(C)[C@H]2CC[C@@]3(C)[C@@H](CC[C@@]34CCC(=O)O4)[C@H]12` [TMSPL, 7α-thiomethylspironolactone], the plasma half-life [4] is given as 13.8 h.
For `CC(=O)S[C@@H]1CC2=CC(=O)CC[C@]2(C)[C@H]2CC[C@@]3(C)[C@@H](CC[C@@]34CCC(=O)O4)[C@H]12` [SPL, 7α-Acetylthio-17α-hydroxy-3-oxopregn-4-ene-21-carboxylic acid γ-lactone], the plasma half-life [4] is given as 1.4 h.
